Reference: patent US20040038855A1 (priority 1999, published 2004)
Where a name gives a salt, the structure may show the parent alone. Read-outs that look alike come from different tables or passages of the source.

What was measured:
[1] = molecular target: T1, human α1D adrenergic receptor (Homo sapiens, UniProt P25100); experiment: Binding affinity at the human α1D adrenergic receptor; settings: Table 3d; read-out: hα1D Ki
T1 construct: expressed in transfected cells
T1 sequence (P25100 1-572): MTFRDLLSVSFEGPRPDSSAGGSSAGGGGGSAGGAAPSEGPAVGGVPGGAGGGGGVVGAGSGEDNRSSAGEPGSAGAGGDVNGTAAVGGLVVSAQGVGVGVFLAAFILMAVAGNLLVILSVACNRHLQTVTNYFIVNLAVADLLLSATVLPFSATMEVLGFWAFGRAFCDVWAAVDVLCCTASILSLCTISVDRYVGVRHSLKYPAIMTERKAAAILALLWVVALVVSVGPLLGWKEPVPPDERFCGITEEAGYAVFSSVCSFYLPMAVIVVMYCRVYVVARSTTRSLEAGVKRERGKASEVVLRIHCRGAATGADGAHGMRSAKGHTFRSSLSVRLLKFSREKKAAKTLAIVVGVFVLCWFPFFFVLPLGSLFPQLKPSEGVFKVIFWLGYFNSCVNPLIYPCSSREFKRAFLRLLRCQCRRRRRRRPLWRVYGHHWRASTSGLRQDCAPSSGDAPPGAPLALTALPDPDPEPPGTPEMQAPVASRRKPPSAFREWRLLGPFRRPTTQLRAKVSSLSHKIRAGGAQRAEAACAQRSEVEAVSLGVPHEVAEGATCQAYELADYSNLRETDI
Excerpt: (§1) Other receptors: Cell membranes expressing human dopamine D1, D2, D4 and rat D3 receptors were purchased through BioSignal, Inc. (Montreal, Canada). Binding assays using the histamine H1 receptor; dopamine receptors; and α1A, α1B, and α2 adrenergic receptors may be carried out according to the procedures described in U.S. Pat. No. 5,780,485, the disclosure of which is hereby incorporated by reference in its entirety into this application. Binding assays using the dopamine D5 receptor may be carried out according to the procedures described in U.S. Pat. No. 5,882,855, the disclosure of which is hereby incorporated by reference in its entirety into this application. Binding assays for the human α1D adrenergic receptor may be carried out according to the procedures described in U.S. Pat. No. 6,156,518, the disclosure of which is hereby incorporated by reference in its entirety into this application.

[2] = molecular target: T2, human α2A adrenoceptor (Homo sapiens, UniProt P08913); experiment: Binding affinity at the human α2A adrenergic receptor
T2 construct: expressed in transfected cells
T2 sequence (P08913 1-465): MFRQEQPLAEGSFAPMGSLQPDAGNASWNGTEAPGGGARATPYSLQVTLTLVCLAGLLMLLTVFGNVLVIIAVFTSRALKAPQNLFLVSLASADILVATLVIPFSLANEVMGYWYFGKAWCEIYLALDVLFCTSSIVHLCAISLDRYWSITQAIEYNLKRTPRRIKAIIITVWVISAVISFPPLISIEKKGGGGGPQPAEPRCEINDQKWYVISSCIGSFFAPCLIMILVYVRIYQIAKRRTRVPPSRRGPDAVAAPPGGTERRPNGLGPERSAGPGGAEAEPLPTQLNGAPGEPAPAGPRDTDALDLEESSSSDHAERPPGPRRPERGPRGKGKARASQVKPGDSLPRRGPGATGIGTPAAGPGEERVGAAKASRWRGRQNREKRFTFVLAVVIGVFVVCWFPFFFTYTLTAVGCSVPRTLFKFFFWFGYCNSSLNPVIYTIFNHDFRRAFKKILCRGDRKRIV
Excerpt: as §1

[3] = molecular target: T3, human Dopamine D2 receptor (Homo sapiens, UniProt P14416); experiment: Binding affinity at the human dopamine D2 receptor; settings: Table 3d; * = >50000; read-out: hD2 Ki
T3 construct: purchased BioSignal, Inc. (Montreal, Canada)
T3 sequence (P14416 whole entry): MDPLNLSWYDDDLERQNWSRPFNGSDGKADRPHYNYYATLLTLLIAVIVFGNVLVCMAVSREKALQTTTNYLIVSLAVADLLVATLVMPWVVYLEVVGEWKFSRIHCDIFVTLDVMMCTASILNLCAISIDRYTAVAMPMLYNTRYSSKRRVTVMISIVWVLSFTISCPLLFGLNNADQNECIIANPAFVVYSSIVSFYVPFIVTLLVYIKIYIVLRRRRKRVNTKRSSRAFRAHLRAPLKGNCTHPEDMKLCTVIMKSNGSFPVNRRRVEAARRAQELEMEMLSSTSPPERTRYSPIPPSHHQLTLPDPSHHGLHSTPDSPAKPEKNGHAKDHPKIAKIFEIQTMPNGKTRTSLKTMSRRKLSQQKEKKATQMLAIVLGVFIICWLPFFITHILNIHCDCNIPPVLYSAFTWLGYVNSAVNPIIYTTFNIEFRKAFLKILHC
Outline: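 Receptor binding read-out throughout; membranes expressing human D1 or D2 receptor were used for those two targets.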

[4] = molecular target: rat D3 receptor (Rattus norvegicus, UniProt P19020); experiment: Binding affinity at the rat dopamine D3 receptor; settings: Table 3d; read-out: rD3 Ki
Sequence of rat D3 receptor (P19020 whole entry): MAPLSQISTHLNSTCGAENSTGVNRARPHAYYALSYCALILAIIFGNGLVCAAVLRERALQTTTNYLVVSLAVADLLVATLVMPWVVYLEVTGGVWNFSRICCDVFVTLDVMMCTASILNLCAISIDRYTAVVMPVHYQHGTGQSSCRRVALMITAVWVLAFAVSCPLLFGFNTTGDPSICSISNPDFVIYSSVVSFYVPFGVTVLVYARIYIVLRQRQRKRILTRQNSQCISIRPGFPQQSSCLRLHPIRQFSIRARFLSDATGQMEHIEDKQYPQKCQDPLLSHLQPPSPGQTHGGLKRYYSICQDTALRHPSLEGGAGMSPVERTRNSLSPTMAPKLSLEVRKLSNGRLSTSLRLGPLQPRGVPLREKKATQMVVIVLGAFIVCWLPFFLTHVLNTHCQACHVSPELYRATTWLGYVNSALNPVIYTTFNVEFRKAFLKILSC
Excerpt: as §1

[5] = molecular target: T4, human 5HT2A receptor (Homo sapiens, UniProt P28223); experiment: Binding affinity at the human 5HT2A receptor ([3H]ketanserin); settings: Table 3e; read-out: h5HT2A Ki
T4 construct: expressed in transfected cells; host or cells: COS7 cells, transient, DEAE dextran, vector pCEXV3
T4 sequence (P28223 whole entry): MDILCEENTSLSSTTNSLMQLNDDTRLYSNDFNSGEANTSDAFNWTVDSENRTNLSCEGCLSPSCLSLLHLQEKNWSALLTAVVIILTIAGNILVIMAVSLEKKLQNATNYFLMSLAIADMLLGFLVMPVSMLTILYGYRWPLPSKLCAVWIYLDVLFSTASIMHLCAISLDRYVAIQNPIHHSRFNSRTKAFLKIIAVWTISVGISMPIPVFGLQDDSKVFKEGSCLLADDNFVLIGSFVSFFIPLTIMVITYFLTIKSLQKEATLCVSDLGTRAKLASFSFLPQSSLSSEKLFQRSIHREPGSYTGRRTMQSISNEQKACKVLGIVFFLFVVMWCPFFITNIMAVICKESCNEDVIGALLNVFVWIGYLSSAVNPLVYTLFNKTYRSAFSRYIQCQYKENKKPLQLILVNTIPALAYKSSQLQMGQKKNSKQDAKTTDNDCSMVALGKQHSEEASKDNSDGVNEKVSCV
Experimental: Human 5HT2A Receptor: The coding sequence of the human 5HT2A receptor was obtained from a human brain cortex cDNA library, and cloned into the cloning site of pCEXV3 eukaryotic expression vector. This construct was transfected into COS7 cells by the DEAE dextran method (Cullen, 1987). Cells were harvested after 72 hours and lysed by sonication in 5 mM Tris HCl, 5 mM EDTA, pH 7.5. The cell lysates were subjected to centrifugation at 1000 rpm for 5 minutes at 4° C., and the supernatant was subjected to centrifugation at 30,000×g for 20 minutes at 4° C. The pellet was suspended in 50 mM Tris HCl buffer (pH 7.7 at room temperature) containing 10 mM MgSO4, 0.5 mM EDTA, and 0.1% ascorbate. […] Nonspecific binding was defined by the addition of 10 μM mianserin. The bound radioligand was separated by filtration through GF/B filters using a cell harvester.

[6] = molecular target: T5, human dopamine D1 receptor (Homo sapiens, UniProt P21728); experiment: Binding affinity at the human dopamine D1 receptor; settings: Table 3d; read-out: hD1 Ki
T5 construct: purchased BioSignal, Inc. (Montreal, Canada)
T5 sequence (P21728 whole entry): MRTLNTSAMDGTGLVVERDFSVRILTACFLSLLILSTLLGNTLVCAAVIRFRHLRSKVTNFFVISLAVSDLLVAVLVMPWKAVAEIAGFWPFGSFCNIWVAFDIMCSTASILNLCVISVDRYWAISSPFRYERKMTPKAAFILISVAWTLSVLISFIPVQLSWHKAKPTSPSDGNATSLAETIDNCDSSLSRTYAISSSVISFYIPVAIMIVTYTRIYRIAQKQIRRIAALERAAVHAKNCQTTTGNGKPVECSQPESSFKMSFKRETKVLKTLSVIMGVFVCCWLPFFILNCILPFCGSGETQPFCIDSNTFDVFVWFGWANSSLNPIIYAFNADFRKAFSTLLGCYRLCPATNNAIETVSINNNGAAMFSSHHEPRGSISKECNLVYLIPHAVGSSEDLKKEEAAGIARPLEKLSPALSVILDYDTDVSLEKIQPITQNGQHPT
Excerpt: as §1

[7] = molecular target: T6, human dopamine D5 receptor (Homo sapiens, UniProt P21918); experiment: Binding affinity at the human dopamine D5 receptor; settings: Table 3d; read-out: hD5 Ki
T6 construct: expressed in transfected cells
T6 sequence (P21918 whole entry): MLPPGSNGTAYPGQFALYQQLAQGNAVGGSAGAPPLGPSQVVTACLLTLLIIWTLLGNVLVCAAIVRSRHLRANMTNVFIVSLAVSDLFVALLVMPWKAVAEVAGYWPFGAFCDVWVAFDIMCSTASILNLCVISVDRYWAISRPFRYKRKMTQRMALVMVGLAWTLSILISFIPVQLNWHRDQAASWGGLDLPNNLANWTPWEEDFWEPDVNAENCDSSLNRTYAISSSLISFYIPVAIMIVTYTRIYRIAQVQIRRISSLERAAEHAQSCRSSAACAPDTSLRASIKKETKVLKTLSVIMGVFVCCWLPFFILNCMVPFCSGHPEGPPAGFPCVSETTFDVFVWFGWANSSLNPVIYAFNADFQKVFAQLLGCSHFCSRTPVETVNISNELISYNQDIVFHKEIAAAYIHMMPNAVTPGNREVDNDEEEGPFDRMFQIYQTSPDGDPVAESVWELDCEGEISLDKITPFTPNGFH
Excerpt: as §1

Compound	Ki [1] [µM]	Ki ([2]; Table 3d, read-out: hα2A Ki) [µM]	Ki [2] [µM]	Ki [3] [µM]	Ki [4] [µM]	Ki [5] [µM]	Ki [6] [µM]	Ki [7] [µM]
2-(3,4-DIFLUOROPHENYL)4,5-DIHYDROIMIDAZOLE-1-CARBOXYLIC ACID {3-[4-PHENYL-4-(4-BROMO-5-METHYLTHIOPNEN-2-YL)]-PROPYL}-AMIDE [Example 19]	0.517	0.285						
COC(=O)C1=C(C)NC(=O)N(C(=O)NCCCN2CCC3(CC2)OCc2ccccc23)C1c1ccc2nonc2c1 (single isomer, unassigned) [Example 18, HYDROCHLORIDE]	0.612		0.057	0.624	1.22	1.57	0.596	2.54
COCC1=C(C(=O)OC)C(c2ccc(F)c(F)c2)N(C(=O)NCCCN2CCC(c3cccc(NC(C)=O)c3)CC2)C(=O)N1 (single isomer, unassigned; (-)) [Example 1, (−)-1,2,3,6-TETRAHYDRO-1-{N-[4-(3,-ACETAMIDO)-PHENYLPIPERIDIN-1-YL]PROPYL}CARBOXAMIDO-4-METHOXYMETHYL-6-(3,4-DIFLUORO-PHENYL)-2-OXOPYRIMIDINE-5-CARBOXYLIC ACID METHYL ESTER]	1.31							
COCC1=C(C(=O)OC)[C@H](c2ccc(F)c(F)c2)N(C(=O)NCCCN2CCC(c3cccc(NC(C)=O)c3)CC2)C(=O)N1 [Example 10, (+)-1,2,3,6-TETRAHYDRO-1-{N-[4-(3,-ACETAMIDO)-PHENYLPIPERIDIN-1-YL]PROPYL}CARBOXAMIDO-4-METHOXYMETHYL-6-(3,4-DIFLUORO-PHENYL)-2-OXOPYRIMIDINE-5-CARBOXYLIC ACID METHYL ESTER]	12.3			> 50	5.89		1.93	0.773
COC(=O)C1=C(C)NC(=O)N(C(=O)NCCCN2CCC3(CC2)OCc2ccccc23)C1c1ccc(F)c(F)c1 (stereo not drawn) [Example 20, 4-(3,4-DIFLUORPHENYL)-6-METHYL-2-OXO-3-{[3-(4-SPIRO[ISOBENZOFURAN-1(3H),4′-PIPERIDINE]PROPYL}-1,2,3,4-TETRAHYDROPYRIMIDINE-5-CARBOXYLIC ACID METHYL ESTER]	0.207		0.099			2.82		
